Test results reported in ChEMBL document CHEMBL5550197, “New melphalan derivatives for the treatment of retinoblastoma in combination with thermotherapy” (RSC Med Chem, 2024).

Columns and labels:
RPMI-8226 = assay: Cytotoxicity against human RPMI-8226 cells incubated for 48 hrs by resazurin dye based assay; format: functional, cell-based; details: RPMI-8226, 48 h
dsDNA [1] = assay: Binding affinity to dsDNA (unknown origin) assessed as adduct formation by measuring free dsDNA incubated for 48 hrs by ESI-MS analysis; format: nucleic-acid assay; design: concentration or dose not given beside the values
dsDNA [2] = assay: Binding affinity to dsDNA (unknown origin) assessed as adduct formation by measuring bound dsDNA incubated for 48 hrs by ESI-MS analysis; format: nucleic-acid assay
Y79 [3] = assay: Cytotoxicity against human Y79 cells assessed as cell viability incubated for 24 hrs under 37 degreeC by PrestoBlue reagent based assay; format: functional; details: Y79, 24 h
Y79 [4] = assay: Potency index, ratio of melphalan IC50 to test compound IC50 for cytotoxicity against human Y79 cells assessed as cell viability preincubated for 1 hr under 42 degreeC and further incubated under 37 degreeC for 23 hrs by PrestoBlue reagent based assay; format: functional; details: time 24 hrs
Y79 [5] = assay: Potency index, ratio of melphalan IC50 to test compound IC50 for cytotoxicity against human Y79 cells assessed as cell viability incubated for 24 hrs under 37 degreeC by PrestoBlue reagent based assay; format: functional

Compound | Activity (dsDNA [1]) | Activity (dsDNA [2]) | other results
N[C@@H](Cc1ccc(N(CCCl)CCCl)cc1)C(=O)O | 99% | – | IC50 (RPMI-8226): 8.9 µM
N[C@@H](Cc1ccc(N(CCCl)CCCl)cc1)C(=O)OCCC(F)(F)C(F)(F)C(F)(F)C(F)(F)C(F)(F)C(F)(F)F | 92% | – | –
N[C@@H](Cc1ccc(N(CCCl)CCCl)cc1)C(=O)OCCC(F)(F)C(F)(F)C(F)(F)C(F)(F)C(F)(F)C(F)(F)C(F)(F)C(F)(F)F | 98% | – | –
N[C@@H](Cc1ccc(N(CCCl)CCCl)cc1)C(=O)OCCC(F)(F)C(F)(F)C(F)(F)C(F)(F)F | 51% | 49% | –
N[C@@H](Cc1ccc(N(CCCl)CCCl)cc1)C(=O)OCCC(F)(F)C(F)(F)C(F)(F)C(F)(F)C(F)(F)C(F)(F)C(F)(F)C(F)(F)C(F)(F)C(F)(F)F | – | – | IC50 (Y79 [3]): > 200 µM
N[C@@H](Cc1ccc(N(CCCl)CCCl)cc1)C(=O)OCCC(F)(F)C(F)(F)F | 37% | 63% | –
Cl.N[C@@H](Cc1ccc(N(CCCl)CCCl)cc1)C(=O)OCCC(F)(F)F | 26% | 74% | Ratio IC50 (Y79 [4]): 8; Ratio IC50 (Y79 [5]): 8
